From US8916570B2 (The United States of America, as represented by the …, priority 2008, dated 2014)

Tests used:
hA1AR = target: T1, hA1AR (Homo sapiens, UniProt P30542); assay: Binding at hA1AR, CHO membranes (Example 7); details: read-out: % inhibition hA1
T1 construct: expressed in transfected cells; host or cells: CHO
T1 sequence (P30542 1-326): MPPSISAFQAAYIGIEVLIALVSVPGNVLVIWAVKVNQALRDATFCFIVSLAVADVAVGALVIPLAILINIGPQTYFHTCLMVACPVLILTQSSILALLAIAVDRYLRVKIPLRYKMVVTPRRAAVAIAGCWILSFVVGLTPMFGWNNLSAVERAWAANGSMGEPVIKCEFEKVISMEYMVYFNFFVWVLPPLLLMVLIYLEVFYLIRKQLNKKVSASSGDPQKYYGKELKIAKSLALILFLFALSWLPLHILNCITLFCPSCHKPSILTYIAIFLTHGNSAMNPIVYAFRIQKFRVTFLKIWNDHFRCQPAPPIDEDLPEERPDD

hA2AAR = target: T2, hA2AAR (Homo sapiens, UniProt P29274); assay: Binding at hA2AAR, HEK-293 membranes (Example 7); details: for inhibition at 10 µM: read-out: % inhibition hA2A; for Ki: read-out: Affinity (Ki, nM) hA2A
T2 construct: expressed in transfected cells
T2 sequence (P29274 whole entry): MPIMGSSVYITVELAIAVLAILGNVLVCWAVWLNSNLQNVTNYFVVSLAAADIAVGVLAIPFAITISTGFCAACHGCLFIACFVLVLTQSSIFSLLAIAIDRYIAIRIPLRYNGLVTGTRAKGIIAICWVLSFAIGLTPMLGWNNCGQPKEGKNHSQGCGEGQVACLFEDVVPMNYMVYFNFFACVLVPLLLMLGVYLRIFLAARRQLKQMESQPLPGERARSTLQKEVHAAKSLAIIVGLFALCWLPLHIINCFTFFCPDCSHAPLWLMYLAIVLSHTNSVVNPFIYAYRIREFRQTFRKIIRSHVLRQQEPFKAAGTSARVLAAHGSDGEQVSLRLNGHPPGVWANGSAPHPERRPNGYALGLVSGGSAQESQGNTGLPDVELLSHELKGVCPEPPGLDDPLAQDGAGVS
Description: After harvesting, cells were homogenized and suspended in PBS.
Nonspecific binding was determined using a final concentration of 10 μM 51 diluted with the buffer.

hA3AR = target: T3, hA3AR (Homo sapiens, UniProt P0DMS8); assay: Binding at hA3AR, CHO membranes (Example 7); details: read-out: Affinity (Ki, nM) hA3
T3 construct: expressed in transfected cells; host or cells: CHO
T3 sequence (P0DMS8 1-318): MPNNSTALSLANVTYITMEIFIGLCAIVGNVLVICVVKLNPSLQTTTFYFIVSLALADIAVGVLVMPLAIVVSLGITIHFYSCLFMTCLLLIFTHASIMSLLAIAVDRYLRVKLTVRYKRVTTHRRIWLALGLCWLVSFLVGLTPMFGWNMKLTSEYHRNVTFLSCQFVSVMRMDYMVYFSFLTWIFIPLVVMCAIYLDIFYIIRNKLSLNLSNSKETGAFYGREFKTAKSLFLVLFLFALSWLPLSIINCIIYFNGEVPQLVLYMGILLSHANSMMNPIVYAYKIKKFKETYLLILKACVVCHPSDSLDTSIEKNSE

Row | inhibition at 10 µM (hA1AR) | inhibition at 10 µM (hA2AAR) | Ki (hA3AR) | Ki (hA2AAR) | Structure (SMILES)
1 | 6% | 47% | 1.66 ± 0.36 nM |  | CNC(=O)[C@@]12C[C@@H]1[C@@H](n1cnc3c(NC)nc(C#Cc4cc(F)cc(F)c4)nc31)[C@H](O)[C@@H]2O [Compound 320, (1S,2R,3S,4R,5S)-4-(2-((3,5-Difluorophenyl)ethynyl)-6-(methylamino)-9H-purin-9-yl)-2,3-dihydroxy-N-methylbicyclo[3.1.0]hexane-1-carboxamide]
2 | 20% | 29% | 3.1 ± 1.26 nM |  | CNC(=O)[C@@]12C[C@@H]1[C@@H](n1cnc3c(NC)nc(C#Cc4ccc(-c5ccccc5)cc4)nc31)[C@H](O)[C@@H]2O [Compound 324, (1S,2R,3S,4R,5S)-4-(2-(Biphenyl-4-ylethynyl)-6-(methylamino)-9H-purin-9-yl)-2,3-dihydroxy-N-methylbicyclo[3.1.0]hexane-1-carboxamide]
3 | 1% | 38% | 6.75 ± 2.78 nM |  | CNC(=O)[C@@]12C[C@@H]1[C@@H](n1cnc3c(NCc4cccc(Cl)c4)nc(C#Cc4cccc(C(=O)O)c4)nc31)[C@H](O)[C@@H]2O [Compound 333, 3-((6-(3-Chlorobenzylamino)-9-((1S,2R,3S,4R,5S)-3,4-dihydroxy-5-(methylcarbamoyl)bicyclo[3.1.0]hexan-2-yl)-9H-purin-2-yl)ethynyl)benzoic acid]
4 | 8% | 62% | 2.57 ± 0.78 nM |  | CNC(=O)[C@@]12C[C@@H]1[C@@H](n1cnc3c(NC)nc(C#Cc4ccc(C(C)=O)cc4)nc31)[C@H](O)[C@@H]2O [Compound 323, (1S,2R,3S,4R,5S)-4-(2-((4-Acetylphenyl)ethynyl)-6-(methylamino)-9H-purin-9-yl)-2,3-dihydroxy-N-methylbicyclo[3.1.0]hexane-1-carboxamide]
5 | 24% | 34% | 1.67 ± 0.18 nM |  | CNC(=O)[C@@]12C[C@@H]1[C@@H](n1cnc3c(NC)nc(C#Cc4cccc5ccccc45)nc31)[C@H](O)[C@@H]2O [Compound 325, (1S,2R,3S,4R,5S)-2,3-Dihydroxy-N-methyl-4-(6-(methylamino)-2-(naphthalen-1-ylethynyl)-9H-purin-9-yl)bicyclo[3.1.0]hexane-1-carboxamide]
6 | 11% | 26% | 0.91 ± 0.06 nM |  | CNC(=O)[C@@]12C[C@@H]1[C@@H](n1cnc3c(NC)nc(C#Cc4ccc(Br)cc4)nc31)[C@H](O)[C@@H]2O [Compound 317, (1S,2R,3S,4R,5S)-4-(2-((4-Bromophenyl)ethynyl)-6-(methylamino)-9H-purin-9-yl)-2,3-dihydroxy-N-methylbicyclo[3.1.0]hexane-1-carboxamide]
7 | 3% | 41% |  |  | CNC(=O)[C@@]12C[C@@H]1[C@@H](n1cnc3c(NCc4cccc(Cl)c4)nc(C#Cc4ccc(F)c(F)c4)nc31)[C@H](O)[C@@H]2O [Compound 331, (1S,2R,3S,4R,5S)-4-(6-(3-Chlorobenzylamino)-2-((3,4-difluorophenyl)ethynyl)-9H-purin-9-yl)-2,3-dihydroxy-N-methylbicyclo[3.1.0]hexane-1-carboxamide]
8 | 14% | 38% | 3.78 ± 1.16 nM |  | CCc1ccc(C#Cc2nc(NC)c3ncn([C@H]4[C@H](O)[C@H](O)[C@]5(C(=O)NC)C[C@H]45)c3n2)cc1 [Compound 321, (1S,2R,3S,4R,5S)-4-(2-((4-Ethylphenyl)ethynyl)-6-(methylamino)-9H-purin-9-yl)-2,3-dihydroxy-N-methylbicyclo[3.1.0]hexane-1-carboxamide]
9 | 16% | 19% | 1.07 ± 0.14 nM |  | CNC(=O)[C@@]12C[C@@H]1[C@@H](n1cnc3c(NC)nc(C#Cc4cccc(N)c4)nc31)[C@H](O)[C@@H]2O [Compound 318, (1S,2R,3S,4R,5S)-4-(2-((3-Aminophenyl)ethynyl)-6-(methylamino)-9H-purin-9-yl)-2,3-dihydroxy-N-methylbicyclo[3.1.0]hexane-1-carboxamide]
10 | 27% | 7% | 10.1 ± 1.9 nM |  | CNC(=O)[C@@]12C[C@@H]1[C@@H](n1cnc3c(NC)nc(C#Cc4ccc(C(C)(C)C)cc4)nc31)[C@H](O)[C@@H]2O [Compound 322, (1S,2R,3S,4R,5S)-4-(2-((4-tert-Butylphenyl)ethynyl)-6-(methylamino)-9H-purin-9-yl)-2,3-dihydroxy-N-methylbicyclo[3.1.0]hexane-1-carboxamide]
11 | 0% |  | 1.95 nM | 1620 nM | CNC(=O)[C@@]12C[C@@H]1[C@@H](n1cnc3c(NCc4cccc(Cl)c4)nc(C#Cc4cccc(Cl)c4)nc31)[C@H](O)[C@@H]2O [Compound 330, (1S,2R,3S,4R,5S)-4-(6-(3-Chlorobenzylamino)-2-((3-chlorophenyl)ethynyl)-9H-purin-9-yl)-2,3-dihydroxy-N-methylbicyclo[3.1.0]hexane-1-carboxamide]

The remaining lines, values behind:

Row | Structure (SMILES) | inhibition at 10 µM (hA1AR) | inhibition at 10 µM (hA2AAR) | Ki (hA3AR) | Ki (hA2AAR)
12 | CNC(=O)[C@@]12C[C@@H]1[C@@H](n1cnc3c(NC)nc(C#Cc4ccccc4)nc31)[C@H](O)[C@@H]2O [Compound 309, (1S,2R,3S,4R,5S)-2,3-Dihydroxy-N-methyl-4-(6-(methylamino)-2-(phenylethynyl)-9H-purin-9-yl)bicyclo[3.1.0]hexane-1-carboxamide] | 18% | 14% |  | 
13 | CNC(=O)[C@@]12C[C@@H]1[C@@H](n1cnc3c(NC)nc(C#Cc4ccccc4F)nc31)[C@H](O)[C@@H]2O [Compound 311, (1S,2R,3S,4R,5S)-4-(2-((2-Fluorophenyl)ethynyl)-6-(methylamino)-9H-purin-9-yl)-2,3-dihydroxy-N-methylbicyclo[3.1.0]hexane-1-carboxamide] | 20% | 17% | 0.97 ± 0.38 nM | 
14 | CNC(=O)[C@@]12C[C@@H]1[C@@H](n1cnc3c(NCc4cccc(Cl)c4)nc(C#Cc4ccc5ccc6cccc7ccc4c5c67)nc31)[C@H](O)[C@@H]2O [Compound 336, (1S,2R,3S,4R,5S)-4-(6-(3-Chlorobenzylamino)-2-(pyren-1-ylethynyl)-9H-purin-9-yl)-2,3-dihydroxy-N-methylbicyclo[3.1.0]hexane-1-carboxamide] | 6% | 66% | 68.3 ± 12.5 nM | 
15 | CNC(=O)[C@@]12C[C@@H]1[C@@H](n1cnc3c(NC)nc(C#Cc4cc5ccccc5c5ccccc45)nc31)[C@H](O)[C@@H]2O [Compound 326, (1S,2R,3S,4R,5S)-2,3-Dihydroxy-N-methyl-4-(6-(methylamino)-2-(phenanthren-9-ylethynyl)-9H-purin-9-yl)bicyclo[3.1.0]hexane-1-carboxamide] | 15% | 52% | 3.48 ± 1.36 nM | 
16 | CNC(=O)[C@@]12C[C@@H]1[C@@H](n1cnc3c(NC)nc(C#Cc4ccc(Cl)cc4)nc31)[C@H](O)[C@@H]2O [Compound 316, (1S,2R,3S,4R,5S)-4-(2-((4-Chlorophenyl)ethynyl)-6-(methylamino)-9H-purin-9-yl)-2,3-dihydroxy-N-methylbicyclo[3.1.0]hexane-1-carboxamide] | 13% | 30% | 1.22 ± 0.31 nM | 
17 | CNC(=O)[C@@]12C[C@@H]1[C@@H](n1cnc3c(NC)nc(C#Cc4cccc(F)c4)nc31)[C@H](O)[C@@H]2O [Compound 312, (1S,2R,3S,4R,5S)-4-(2-((3-Fluorophenyl)ethynyl)-6-(methylamino)-9H-purin-9-yl)-2,3-dihydroxy-N-methylbicyclo[3.1.0]hexane-1-carboxamide] | 14% | 10% | 0.97 ± 0.24 nM | 
18 | CNC(=O)[C@@]12C[C@@H]1[C@@H](n1cnc3c(NC)nc(C#Cc4ccccn4)nc31)[C@H](O)[C@@H]2O [Compound 310, (1S,2R,3S,4R,5S)-2,3-Dihydroxy-N-methyl-4-(6-(methylamino)-2-(pyridin-2-ylethynyl)-9H-purin-9-yl)bicyclo[3.1.0]hexane-1-carboxamide] | 13% | 13% |  | 
19 | CNC(=O)[C@@]12C[C@@H]1[C@@H](n1cnc3c(NC)nc(C#Cc4cccc(Cl)c4)nc31)[C@H](O)[C@@H]2O [Compound 315, (1S,2R,3S,4R,5S)-4-(2-((3-Chlorophenyl)ethynyl)-6-(methylamino)-9H-purin-9-yl)-2,3-dihydroxy-N-methylbicyclo[3.1.0]hexane-1-carboxamide] | 11% |  | 1.6 ± 0.6 nM | 1270 ± 300 nM
20 | CNC(=O)[C@@]12C[C@@H]1[C@@H](n1cnc3c(NC)nc(C#Cc4ccc(F)c(F)c4)nc31)[C@H](O)[C@@H]2O [Compound 319, (1S,2R,3S,4R,5S)-4-(2-((3,4-Difluorophenyl)ethynyl)-6-(methylamino)-9H-purin-9-yl)-2,3-dihydroxy-N-methylbicyclo[3.1.0]hexane-1-carboxamide] | 6% | 6% | 1.65 ± 0.08 nM | 
